Earlier results, collected in patent publication US20120142605A1, “METHODS OF TREATING PSORIASIS” (Amgen Inc., priority 2009, published 2012).

System: psoriasis patients
Settings: not completely effective for all patients

etanercept
time for which it can be safely and effectively used: at least 96 weeks
